Data on ten compounds can be found in US20240002388A1, “PYRIMIDINONE COMPOUNDS AND USES THEREOF” (HUTCHISON MEDIPHARMA LIMITED, priority 2020, published 2024).

pIC50: −log10 of the molar value.

In assay [1] the target is RIPK1 recombination protein (Homo sapiens (Human), UniProt Q13546). Description: RIPK1 kinase activity assay (ADP-Glo). It is filed as biochemical. The settings on record: for pIC50: RIPK1 kinase activity, ADP-Glo, 10 μM ATP. The procedure:
RIPK1 recombination protein: synthesized by Shanghai Medicilon Inc. under the commission by Hutchison MediPharma Limited (50 g of cell pellet was resuspended in 250 mL of lysis buffer (50 mM Tris, pH 7.5, 250 mM NaCl, 1 mM DTT, protease inhibitor 1:50), the cells were ultrasonically lysed using a sonicator (the power set to 4) on ice for 3×30 minutes; then centrifugation was carried out at 4° C., at 15,000 g for 30 minutes to clarify the suspension, the soluble pellet was resuspended into 10 mL of glutathione agarose, and incubated at 4° C. for 2 hours; then the beads were loaded into the column and washed with lysis buffer (no protease inhibitors) to baseline, and eluted with 20 mM of reduced glutathione (50 mM Tris, pH 8). The fractions identified by SDS-PAGE as containing the protein of interest were collected (10 mL of total volume), concentrated to about 5 mL and loaded into 300 mL superdex75 column (GE Healthcare) equilibrated with buffer (50 mM Tris, pH 7.5, 150 mM NaCl, 1 mM DTT, 10% glycerol, pH 7.5). RIP1 protein was eluted as a dimer from the superdex75 column. The protein concentration was determined by the Bradford assay using BSA as the standard. The yield was 12.5 mg at 0.63 mg/mL. The protein was aliquoted and frozen at −80° C. for later use.
ADP-Glo Kinase kit can be used to measure ADP level in kinase activity assay so as to distinguish the inhibitory effects of different compounds on RIPK1 kinase activity. The ADP-Glo assay was usually divided into three steps. Firstly, the kinase converted ATP to ADP and phosphorylated the substrate at the same time; secondly, ATP digestion reagent was added to degrade all ATP in the reaction system; finally, a detection reagent was added to reduce ADP to ATP, and energy from ATP was transferred to […] which thus emitting a chemical luminescence that can be detected. Assay procedure can refer to manufacture's technical manual.
(2) Reagent Preparation: • 1.33× kinase buffer: 5× kinase buffer stock (250 mM of NaCl, 150 mM of MgCl2, 2.5 mg/ml BSA (bovine serum albumin), 0.1% CHAPS (3-[(3-cholamidopropyl)-dimethyl-ammonio]-1-propane sulfonate), and 5 mM of dithiothreitol) was diluted with water to 1.33× kinase buffer; • RIPK1 enzyme solution: the kinase was dissolved in 1.33× kinase buffer to make 40 nM as the final working concentration; • ATP solution: 10 mM ATP stock solution in water was dissolved in 1.33× kinase buffer to make 10 μM as the final working concentration; • 4× compound preparation: the compound was diluted in a 3-fold gradient, and finally 4% DMSO aqueous solution containing different concentrations of the compound was obtained. The final concentrations of the test compound were 10, 3.33, 1.11, 0.37, 0.12, 0.04, 0.014, and 0.005 μM.
The assay set up two control groups, one was 100% inhibition group (no enzyme treatment), another was 0% inhibition group (no inhibitor treatment), each control group contained 8 replicate wells. 2.5 μl of serially diluted compound was added to each well of a 384-well plate, with double replicate wells, and 4% DMSO solution was added to control wells. Then 5 μl of RIPK1 enzyme solution was added to each well except 100% inhibition control, 5 ul of buffer was added to 100% inhibition control, after that, 2.5 μl of ATP solution was added to all wells, the plate was vibrated at 1000 rpm for 30 seconds to perform transient centrifuge; finally the 384-well assay plate was put in the shaking incubator, and incubated at room temperature for 3 hours. After the enzymatic reaction was completed, 5 μl of ATP depletion reagent was added to each well, the mixture was centrifuged transiently, then the 384-well assay plate was put in the shaking incubator, and incubated at room temperature for 1 hour. 5 μl of ADP detection reagent was added to each well, and the mixture was centrifuged transiently, and incubated at room temperature for 0.5 hour. […]
On the technique in general: In ADP-Glo the light output rises with the ADP produced.

Assay [2] has as its system U937 cell line (human histiocytic lymphoma cell line). Put plainly: U937 cell viability assay (TNF-α + Z-VAD-FMK induced necroptosis). It is filed as cell-based. The settings on record: Homo sapiens, U-937; U937 cells, hTNF-α 0.1 μg/mL + Z-VAD-FMK 50 μM, 20 hours, CellTiter-Glo. The method, then:
U937 cell line (human histiocytic lymphoma cell line): purchased from ATCC (American Type Culture Collection) Cell Bank, cultured in a 5% CO2, 37° C. incubator, and RPMI 1640 medium which contains L-glutamine, 1.5 g/L sodium bicarbonate, 2.383 g/L HEPES solution, 0.11 g/L sodium pyruvate and 4.5 g/L glucose, plus 10% fetal bovine serum (FBS) was used. • RPMI 1640 medium: GIBCO, Cat #A10491-01; • Fetal bovine serum (FBS): GIBCO, Cat #10099-141C; • Dimethyl sulfoxide (DMSO): Sigma, Cat #D2650; • Recombinant Human TNF-alpha Protein (hTNF-α): R&D system, Cat #210-TA-100; • Pan-Caspase inhibitor (Z-VAD-FMK): Selleckchem, Cat #S7023; • CellTiter-Glo 2.0 Cell Viability Assay kit: Promega, Cat #G9242; • Microwell plate reader: Envision, Perkin Elmer; • 96-well plate: Corning, Cat #3917.
The U937 cells at the logarithmic phase were taken out, centrifuged to remove the medium, washed with PRMI 1640 medium containing 1% FBS, and diluted with 1% FBS-containing RPMI 1640 medium to 2.5×10^5 cells/ml, inoculated at 70 μL/well into a 96-well plate, i.e., 1.75×10^4 cells/well. The plate was cultured in a 5% CO2, 37° C. cell incubator. After incubating for 1 hour, the test compound was diluted to the corresponding concentrations using DMSO with 3-fold serial dilution, then the corresponding concentration of DMSO diluted solution was diluted into 1% FBS-containing RPMI 1640 medium, and 10 μL/well of the diluted test compound with different concentrations (final concentration of test compound was 1.0, 0.333, 0.111, 0.037, 0.012, 0.004, 0.0014 and 0.0005 μM, while final concentration of DMSO was 0.3%) or 10 μL/well control solution (3% DMSO) were added to the cell culture system respectively, with the total volume being 80 μL/well; Then 10 μL of Z-VAD-FMK solution diluted with 1% FBS-containing RPMI 1640 medium (final concentration of 50 μM) or 10 μL of control solution (2.5% DMSO) was added to each well, with the total volume being 90 μL/well. The plate was incubated in a 5% CO2, 37° C. cell culture incubator for 1 hour.
After being cultured for 1 hour, 10 μL of human recombinant TNF-α protein diluted with 1% FBS-containing RPMI 1640 medium (final concentration of 0.1 μg/mL) or 10 μL/well control solution (1% FBS-containing RPMI 1640 medium) was added to each well. The plate was incubated in a 5% CO2, 37° C. cell culture incubator for 20 hours.
The cell culture plate was taken out from the incubator, and left to stand at room temperature for 30 minutes. Meanwhile, CellTiter-Glo viability assay kit was put from freezer to room temperature, and 50 μL of CellTiter-Glo reagent was added to all wells, the plate was shaken for 1 minutes, protected from light at room temperature for 10 minutes then read the plate on Envision to get the luminescence signal.
The 96-well plate in the dark was taken out, and the chemiluminescence was determined using the Envision microwell plate reader as the signal value of each well.
The mean signal value of the wells of the mixed solution of recombinant human TNF-alpha protein (final concentration of 0.1 μg/mL) and Pan-Caspase inhibitor (final concentration of 50 μM) was used as the lower value, and the mean signal value of the wells without stimulation was used as the upper value. According to the signal value of each well, the inhibition rate of each concentration of every compound was calculated, and the IC50 value of compound was obtained by Model 205 in XL-Fit 5.3 software (ID Business Solutions Limited).
Inhibition rate %=[(Luminescence readout of treated compound−Luminescence readout of positive control)/(Luminescence readout of negative control−Luminescence readout of positive control)]×100%, wherein
Background: Cellular ATP, detected with luciferase, serves as a proxy for viable cell number.

Chain of RIPK1 recombination protein (Q13546 other isoform, or with tags, fused parts or gaps): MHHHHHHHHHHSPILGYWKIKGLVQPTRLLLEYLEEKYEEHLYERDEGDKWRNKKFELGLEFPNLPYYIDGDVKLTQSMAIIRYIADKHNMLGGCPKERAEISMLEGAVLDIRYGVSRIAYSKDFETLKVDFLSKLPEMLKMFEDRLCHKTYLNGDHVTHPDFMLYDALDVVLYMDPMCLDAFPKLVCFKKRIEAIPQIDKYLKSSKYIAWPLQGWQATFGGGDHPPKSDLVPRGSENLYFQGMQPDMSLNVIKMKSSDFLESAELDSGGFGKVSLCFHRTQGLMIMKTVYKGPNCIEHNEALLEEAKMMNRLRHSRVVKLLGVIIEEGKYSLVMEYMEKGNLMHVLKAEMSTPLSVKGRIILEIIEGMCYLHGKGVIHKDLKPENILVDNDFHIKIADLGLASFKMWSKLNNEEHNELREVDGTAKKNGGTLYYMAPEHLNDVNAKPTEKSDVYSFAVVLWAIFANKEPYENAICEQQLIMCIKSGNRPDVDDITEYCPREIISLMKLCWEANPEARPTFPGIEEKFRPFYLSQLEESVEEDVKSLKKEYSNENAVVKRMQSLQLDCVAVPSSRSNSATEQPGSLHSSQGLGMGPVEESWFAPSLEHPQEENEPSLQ

Consider `Cn1c(N)ncc(-c2ccc(C3(NC(=O)c4nnc(Cc5ccccc5)[nH]4)CC3)cc2)c1=O` [Compound 7], for which the pIC50 (in general, −log10 of the IC50, conventionally taken in molar units) in assay [1] was 7.41; in assay [2], 7.17. As for `CC(C)n1ncc2cnc(C(=O)NC3(c4ccc(-c5cncn(C)c5=O)c(C(F)(F)F)c4)CC3)nc21` [Compound 24], the pIC50 was 7.05 in assay [1] and 6.79 in assay [2]. Turning to `Cc1cc(C2(NC(=O)c3ncc4cnn(C(C)C)c4n3)CC2)ccc1-c1cncn(C)c1=O` [Compound 27], the values for the pIC50 in assay [1] and in assay [2] were 7.34 and 6.99, respectively. As for `Cc1ncc(-c2ccc(C3(NC(=O)c4ncc5cnn(C(C)C)c5n4)CC3)cc2)c(=O)n1C` [Compound 31], the pIC50 in assay [1] is 6.36. Turning to `CC(C)n1ncc2cnc(C(=O)NC3(c4ccc(-c5cncn(C)c5=O)cc4Cl)CC3)nc21` [Compound 32], in assay [1] (3 μM compound, read-out: Inhibition rate at the compound concentration of 3 μM), the inhibition at 3 µM was determined as 82.5%. In the case of `Cn1cncc(-c2ccc(C3(NC(=O)c4n[nH]c(Cc5ccccc5)n4)CC3)c(F)c2)c1=O` [Compound 48], the pIC50 in assay [1] was 7.28; in assay [2], 7.41. Regarding `Cn1cncc(-c2ccc(C3(NC(=O)c4nc5n(n4)[C@H](c4ccccc4)CC5)CC3)cc2)c1=O` [Compound 53, (S)—N-(1-(4-(1-methyl-6-oxo-1,6-dihydropyrimidin-5-yl)phenyl)cyclopropyl)-5-phenyl-6,7-dihydro-5H-pyrrolo[1,2-b][1,2,4]triazole-2-carboxamide], the negative-log IC50 (pIC50) in assay [1] is 6.92; in assay [2], 6.26.

Consider `C[C@@H](c1ccccc1)n1cnc(C(=O)NC2(c3ccc(-c4cncn(C)c4=O)cc3)CC2)n1` [Compound 56, (S)—N-(1-(4-(1-methyl-6-oxo-1,6-dihydropyrimidin-5-yl)phenyl)cyclopropyl)-1-(1-phenylethyl)-1H-1,2,4-triazole-3-carboxamide], for which the pIC50 in assay [1] was 6.72. With `C[C@H](c1ccccc1)c1nnc(C(=O)NC2(c3ccc(-c4cncn(C)c4=O)cc3)CC2)[nH]1` [Compound 57, (R)—N-(1-(4-(1-methyl-6-oxo-1,6-dihydropyrimidin-5-yl)phenyl)cyclopropyl)-5-(1-phenylethyl)-4H-1,2,4-triazole-3-carboxamide], the pIC50 in assay [1] was 6.27. Same read-out and setting: the result for `C[C@@H](c1ccccc1)c1nnc(C(=O)NC2(c3ccc(-c4cncn(C)c4=O)cc3)CC2)[nH]1` [Compound 58, (S)—N-(1-(4-(1-methyl-6-oxo-1,6-dihydropyrimidin-5-yl)phenyl)cyclopropyl)-5-(1-phenylethyl)-4H-1,2,4-triazole-3-carboxamide] reads 6.86.
